Results: patent publication US12012574B2, “Process for removing dry surface biofilm” (Whiteley Corporation Pty. Ltd., priority 2013, dated 2024)

What was measured:
[1] = system: 12 day dry surface biofilm (Staphylococcus aureus ATCC 25923); test: Initial screening using TOC to assess removal of dry surface biofilm; assay type: cell-based; conditions: for TOC Coupons with Biofilm: biofilm coated Pyrex coupons after cleaning, Table 14 dilution; for TOC due to biofilm: biofilm coupon TOC minus blank coupon TOC; for TOC Blank coupons: fresh clean coupons exposed to test product at Table 14 dilution; for % Reduction (TOC): relative to negative control (Milli-Q water)
[2] = system: 12 day dry surface biofilm; test: Protein removal from dry surface biofilm coated coupons (BCA assay); assay type: cell-based, Staphylococcus aureus
Protocol: 12 day biofilm was grown on PET coupons following the methodology of Example 8. The rods containing the biofilm coated coupons were then removed and any loosely bound biofilm washed off with Milli-Q water as described in Example 8.
One rod holding three dry surface biofilm coated coupons was then placed into 30 ml of a solution of Example 9 (17 g/litre) for 10 minutes. A second rod was placed into 30 ml of a solution of Matrix (1:50 dilution), and a third rod placed into 30 ml Milli-Q water to serve as a positive control. An additional rod, holding 3 uncoated coupons was sterilized and used as a negative control.
After 10 minutes, each rod was placed into 30 ml of 1M sodium hydroxide solution to elute off all remaining protein. Aliquots from each solution were then taken and tested for protein using a Bicinchroninic Acid (BCA) assay, using a micro BCA test kit (Sigma Aldrich).
In order to perform the BCA assay, a series of standard solutions of bovine serum albumin were prepared to produce a standard curve. […] The samples were then incubated for 60 minutes at 60° C., and the absorbance at 562 nm read using a spectrophotometer (see Table 17). […]

[3] = system: 12 day dry surface biofilm; test: Bacterial reduction from 12 day dry surface biofilm, clean and dirty conditions (Examples 15, 16); assay type: cell-based, Staphylococcus aureus; conditions: for Log reduction: 5 minute contact time
Protocol: The bacterial reductions obtained from a 12 day dry surface biofilm were assessed under clean conditions using Example 9, Chlorclean tablets and a generic SDIC tablet
Each test product was dissolved in water.
Coupons coated in 12-day dry surface biofilm were produced as per Example 8. 2 ml of each test solution, followed by 2 ml of water were added to the wells in a tissue culture plate.
After a 5 minute contact time, coupons were removed from the disinfectant solutions, rinsed twice using 30 ml phosphate buffered saline for 5 seconds, and then placed into 5 ml tubes containing 2 ml of a neutralizer solution comprising 6% Tween 80 plus 1% sodium thiosulfate plus 5% bovine serum plus 10% Bovine Serum Albumin.
The tubes were sonicated for 20 minutes and then vortexed for 2 minutes. Serial 10-fold dilutions were then made and 100 ul of neat, 10^−1, 10^−2, 10^−3 and 10^−4 dilutions were plated on Horse Blood Agar plates. The plates were incubated at 37° C. overnight and then enumerated.
Control coupons, not exposed to disinfectant were similarly worked up to allow the log reductions to be calculated
The bacterial reductions obtained from a 12 day dry surface biofilm were assessed under dirty conditions using Example 9, Chlorclean tablets and a generic SDIC tablet. Each test product was dissolved in artificial hard water containing 340 ppm CaCO3 to which was added 5% Bovine Calf Serum.
Coupons coated in 12-day dry surface biofilm were produced as per Example 8. 2 ml of each test solution, followed by 2 ml of hard water to which was added 5% bovine calf serum were added to the wells in a tissue culture plate.
Control coupons, not exposed to disinfectant were similarly worked up to allow the log reductions to be calculated.

[4] = system: dry surface biofilm of S. aureus; test: Kill of organisms within dry surface biofilm (Example 18); assay type: cell-based, Staphylococcus aureus
[5] = system: planktonic S. aureus; test: Disinfectant efficacy against planktonic bacteria (Example 17); assay type: cell-based, Staphylococcus aureus; conditions: dirty conditions (5% bovine calf serum), 5 minutes contact time
[6] = system: Staphylococcus aureus dry surface biofilm; conditions: solution containing 20,000 ppm available chlorine; cited from earlier work
[7] = absence of biological soil, five minutes contact time
[8] = dirty conditions (presence of an organic soil), 5 minutes contact time

Compound | TOC Coupons with Biofilm [1] [µg] | TOC due to biofilm [1] [µg] | TOC Blank coupons [1] [µg] | % Reduction (TOC) [1] [%] | Percentage reduction ([2]; Example 14: protein, shorter contact time (not given)) | Neutraliser control ([3]; clean conditions) | Log reduction ([3]; clean conditions) [log] | Neutraliser control ([3]; dirty conditions) | Log reduction ([3]; dirty conditions: hard water 340 ppm CaCO3 with 5% Bovine Calf Serum) [log] | log10 reduction of biofilm viability [4, 7] | log10 reduction of biofilm viability ([4]; absence of biological soil, five minutes contact time, listed as SIDC) [log10] | log10 reduction of biofilm viability [4, 8] | log10 reduction / activity [5] | Percentage protein reduction ([2]; Example 13: 10 minute contact time, calculated from positive control (Milli-Q water)) | survival after exposure [6]
[Na+].[OH-] [1M NaOH, sodium hydroxide] | 0.16 | -0.01 | 0.17 | 100 |  |  |  |  |  |  |  |  |  |  | 
O=c1nc([O-])n(Cl)c(=O)n1Cl.[Na+] [SDIC, sodium diisocyanurate] |  |  |  |  | 17.65 | 0.045 | 6.55 | 0.018 | 0.007 | 2.85 log10 | 3 | 0.03 log10 |  |  | 
OO [hydrogen peroxide] |  |  |  |  |  |  |  |  |  | zero and no effect |  | zero | completely deactivated |  | 
OCl [sodium hypochlorite, Sodium hypochlorite] | 1.87 | 1.53 | 0.34 | 79 |  |  |  |  |  |  |  |  |  | 11.50 | still showing survivors
